Data reported in PubChem BioAssay AID1259407 (Chemical Carcinogenesis Research Information System (CCRIS), 2018).
Activity calls are given as the source filed them. No rule for the calls is given here.

Test system: CCRIS mutagenicity, Ames/micronucleus/aberration tests
Assay: CCRIS mutagenicity studies
[1] = Test System: AMES SALMONELLA TYPHIMURIUM, Strain/Indicator: TA98, Metabolic Activation: NONE, Method: PREINCUBATION
[2] = Test System: AMES SALMONELLA TYPHIMURIUM, Strain/Indicator: TA100, Metabolic Activation: NONE, Method: PREINCUBATION
[3] = Test System: AMES SALMONELLA TYPHIMURIUM, Strain/Indicator: TA1535, Metabolic Activation: NONE, Method: PREINCUBATION
[4] = Test System: AMES SALMONELLA TYPHIMURIUM, Strain/Indicator: TA1538, Metabolic Activation: NONE, Method: PREINCUBATION
[5] = Test System: AMES SALMONELLA TYPHIMURIUM, Strain/Indicator: TA1537, Metabolic Activation: NONE, Method: PREINCUBATION

Measured: mutagenic call

CCCCCCCOc1ccccc1NC(=O)OCCN1CCCCC1
inactive: Test System: AMES SALMONELLA TYPHIMURIUM, Strain/Indicator: TA98, Metabolic Activation: MOUSE, LIVER, S-9, AROCLOR 1254, Method: PREINCUBATION inactive; negative | [1] inactive; negative | Test System: AMES SALMONELLA TYPHIMURIUM, Strain/Indicator: TA100, Metabolic Activation: MOUSE, LIVER, S-9, AROCLOR 1254, Method: PREINCUBATION inactive; negative | [2] inactive; negative | Test System: AMES SALMONELLA TYPHIMURIUM, Strain/Indicator: TA1535, Metabolic Activation: MOUSE, LIVER, S-9, AROCLOR 1254, Method: PREINCUBATION inactive; negative | [3] inactive; negative | Test System: AMES SALMONELLA TYPHIMURIUM, Strain/Indicator: TA1538, Metabolic Activation: MOUSE, LIVER, S-9, AROCLOR 1254, Method: PREINCUBATION inactive; negative | [4] inactive; negative | Test System: AMES SALMONELLA TYPHIMURIUM, Strain/Indicator: TA1978, Metabolic Activation: MOUSE, LIVER, S-9, AROCLOR 1254, Method: PREINCUBATION inactive; negative | Test System: AMES SALMONELLA TYPHIMURIUM, Strain/Indicator: TA1978, Metabolic Activation: NONE, Method: PREINCUBATION inactive; negative | Test System: E. COLI, Strain/Indicator: CM611 UVRA/LEXA, Metabolic Activation: MOUSE, LIVER, S-9, AROCLOR 1254, Method: PREINCUBATION inactive; negative | Test System: E. COLI, Strain/Indicator: CM611 UVRA/LEXA, Metabolic Activation: NONE, Method: PREINCUBATION inactive; negative | Test System: E. COLI, Strain/Indicator: WP2, Metabolic Activation: MOUSE, LIVER, S-9, AROCLOR 1254, Method: PREINCUBATION inactive; negative | Test System: E. COLI, Strain/Indicator: WP2, Metabolic Activation: NONE, Method: PREINCUBATION inactive; negative | Test System: E. COLI, Strain/Indicator: WP2 UVRA, Metabolic Activation: MOUSE, LIVER, S-9, AROCLOR 1254, Method: PREINCUBATION inactive; negative | Test System: E. COLI, Strain/Indicator: WP2 UVRA, Metabolic Activation: NONE, Method: PREINCUBATION inactive; negative | Test System: E. COLI, Strain/Indicator: WP67 UVRA/POLA, Metabolic Activation: MOUSE, LIVER, S-9, AROCLOR 1254, Method: PREINCUBATION inactive; negative | Test System: E. COLI, Strain/Indicator: WP67 UVRA/POLA, Metabolic Activation: NONE, Method: PREINCUBATION inactive; negative

COc1cccc([N+](=O)[O-])c1
inactive: [1] inactive; negative | Test System: AMES SALMONELLA TYPHIMURIUM, Strain/Indicator: TA98, Metabolic Activation: RAT, LIVER, S-9, KANECHLOR 500, Method: PREINCUBATION inactive; negative | Test System: AMES SALMONELLA TYPHIMURIUM, Strain/Indicator: TA98, Method: PREINCUBATION inactive; negative | [2] inactive; negative | Test System: AMES SALMONELLA TYPHIMURIUM, Strain/Indicator: TA100, Metabolic Activation: RAT, LIVER, S-9, KANECHLOR 500, Method: PREINCUBATION inactive; negative | Test System: AMES SALMONELLA TYPHIMURIUM, Strain/Indicator: TA100, Method: PREINCUBATION inactive; negative | [3] inactive; negative | Test System: AMES SALMONELLA TYPHIMURIUM, Strain/Indicator: TA1535, Method: PREINCUBATION inactive; negative | [5] inactive; negative | Test System: AMES SALMONELLA TYPHIMURIUM, Strain/Indicator: TA1537, Method: PREINCUBATION inactive; negative | [4] inactive; negative | Test System: AMES SALMONELLA TYPHIMURIUM, Strain/Indicator: TA1538, Method: PREINCUBATION inactive; negative

CC(C)c1c(N)ccc2ccccc12
active: Test System: AMES SALMONELLA TYPHIMURIUM, Strain/Indicator: TA98, Metabolic Activation: RAT LIVER S-9, AROCLOR, Method: STANDARD PLATE active; positive | Test System: AMES SALMONELLA TYPHIMURIUM, Strain/Indicator: TA100, Metabolic Activation: RAT LIVER S-9, AROCLOR, Method: STANDARD PLATE active; positive
inactive: Test System: AMES SALMONELLA TYPHIMURIUM, Strain/Indicator: TA98, Metabolic Activation: NONE, Method: STANDARD PLATE inactive; negative | Test System: AMES SALMONELLA TYPHIMURIUM, Strain/Indicator: TA100, Metabolic Activation: NONE, Method: STANDARD PLATE inactive; negative

O=S(O)CO
inactive: [1] inactive; negative | Test System: AMES SALMONELLA TYPHIMURIUM, Strain/Indicator: TA98, Metabolic Activation: RAT LIVER S-9, PHENOBARBITAL AND BETA-NAPHTHOFLAVONE, Method: PREINCUBATION inactive; negative | [2] inactive; negative | Test System: AMES SALMONELLA TYPHIMURIUM, Strain/Indicator: TA100, Metabolic Activation: RAT LIVER S-9, PHENOBARBITAL AND BETA-NAPHTHOFLAVONE, Method: PREINCUBATION inactive; negative | Test System: AMES SALMONELLA TYPHIMURIUM, Strain/Indicator: TA102, Metabolic Activation: NONE, Method: PREINCUBATION inactive; negative | Test System: AMES SALMONELLA TYPHIMURIUM, Strain/Indicator: TA102, Metabolic Activation: RAT LIVER S-9, PHENOBARBITAL AND BETA-NAPHTHOFLAVONE, Method: PREINCUBATION inactive; negative | Test System: AMES SALMONELLA TYPHIMURIUM, Strain/Indicator: TA104, Metabolic Activation: NONE, Method: PREINCUBATION inactive; negative | Test System: AMES SALMONELLA TYPHIMURIUM, Strain/Indicator: TA104, Metabolic Activation: RAT LIVER S-9, PHENOBARBITAL AND BETA-NAPHTHOFLAVONE, Method: PREINCUBATION inactive; negative | [3] inactive; negative | Test System: AMES SALMONELLA TYPHIMURIUM, Strain/Indicator: TA1535, Metabolic Activation: RAT LIVER S-9, PHENOBARBITAL AND BETA-NAPHTHOFLAVONE, Method: PREINCUBATION inactive; negative | [5] inactive; negative | Test System: AMES SALMONELLA TYPHIMURIUM, Strain/Indicator: TA1537, Metabolic Activation: RAT LIVER S-9, PHENOBARBITAL AND BETA-NAPHTHOFLAVONE, Method: PREINCUBATION inactive; negative | Test System: E.COLI, Strain/Indicator: WP2UVRA/PKM101, Metabolic Activation: NONE, Method: PREINCUBATION inactive; negative | Test System: E.COLI, Strain/Indicator: WP2UVRA/PKM101, Metabolic Activation: RAT LIVER S-9, PHENOBARBITAL AND BETA-NAPHTHOFLAVONE, Method: PREINCUBATION inactive; negative | Test System: E.COLI, Strain/Indicator: WP2UVRA, Metabolic Activation: NONE, Method: PREINCUBATION inactive; negative | Test System: E.COLI, Strain/Indicator: WP2UVRA, Metabolic Activation: RAT LIVER S-9, PHENOBARBITAL AND BETA-NAPHTHOFLAVONE, Method: PREINCUBATION inactive; negative

Nc1cccc2c1-c1cccc3cccc-2c13
inactive: Test System: AMES SALMONELLA TYPHIMURIUM, Strain/Indicator: TA1535, Metabolic Activation: RAT, LIVER, S-9, AROCLOR 1254 (2%), Method: STANDARD PLATE inactive; negative
active: Test System: AMES SALMONELLA TYPHIMURIUM, Strain/Indicator: TA98, Metabolic Activation: RAT, LIVER, S-9, AROCLOR 1254 (2 OR 4%), Method: STANDARD PLATE active; positive | Test System: AMES SALMONELLA TYPHIMURIUM, Strain/Indicator: TA100, Metabolic Activation: RAT, LIVER, S-9, AROCLOR 1254 (2%), Method: STANDARD PLATE active; positive | Test System: AMES SALMONELLA TYPHIMURIUM, Strain/Indicator: TA1537, Metabolic Activation: RAT, LIVER, S-9, AROCLOR 1254 (2%), Method: STANDARD PLATE active; positive

ClC[C@H](Br)CBr
active: Test System: AMES SALMONELLA TYPHIMURIUM, Strain/Indicator: TA100, Metabolic Activation: RAT, LIVER, MICROSOMES, Method: PREINCUBATION active; positive

COC(=O)/C=C/C(C)=C\C=C\C(C)=C\C=C\C=C(C)\C=C\C=C(C)\C=C\C(=O)O
inactive: Test System: Mouse lymphoma, Strain/Indicator: L5178Y (tk+/tk-), Metabolic Activation: None, Method: Suspension/plate inactive; negative | Test System: Mouse lymphoma, Strain/Indicator: L5178Y (tk+/tk-), Metabolic Activation: Rat, Liver, S-9, Aroclor 1254, Method: Suspension/plate inactive; negative
